The record followed here is patent publication US20190194148A1, “TETRAZOLE-CONTAINING 1,2-CYCLOPROPANE-CARBOXAMIDES” (Bayer Pharma Aktiengesellschaft, priority 2017, published 2019).

Where two headings read alike, the source gives them in different places.

The target in this test is T1, human B1 receptor (Homo sapiens, UniProt P46663).
T1 construct: host or cells: CHO-K1
T1 sequence (P46663 1-353): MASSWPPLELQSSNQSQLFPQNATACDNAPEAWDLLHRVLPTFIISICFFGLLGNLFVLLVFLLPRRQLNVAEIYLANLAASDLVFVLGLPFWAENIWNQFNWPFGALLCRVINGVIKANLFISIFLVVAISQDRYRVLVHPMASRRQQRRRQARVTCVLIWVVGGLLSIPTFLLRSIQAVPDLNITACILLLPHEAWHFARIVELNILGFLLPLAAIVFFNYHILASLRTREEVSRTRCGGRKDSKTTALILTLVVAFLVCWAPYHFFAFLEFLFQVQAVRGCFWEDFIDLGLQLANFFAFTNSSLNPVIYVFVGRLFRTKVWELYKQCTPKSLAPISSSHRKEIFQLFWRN
Briefly: Calcium flux assay (FLIPR) with recombinant CHO-K1 cells expressing human B1 receptor. The test is classed as cell-based. As to the method: The potency to inhibit the Bradykinin B1 receptors was determined for the example compounds of this invention in a cell-based fluorescent calcium-mobilisation assay. The assay measures the ability of example compounds to inhibit Bradykinin B1 receptor agonist-induced increase of intracellular free Ca^2+ in the cell line expressing B1 receptor. Specifically, calcium indicator-loaded cells are pre-incubated in the absence or presence of different concentrations of example compounds followed by the stimulation with a selective B1 receptor agonist peptide. The change of the intracellular Ca^2+ concentration is monitored with a fluorescent plate reader FLIPR (Molecular Devices).
Calcium Flux Assays (FLIPR) with Cells Expressing Bradykinin B1 Receptor Calcium Flux Assay (FLIPR) with Recombinant Cells for Bradykinin B1 Receptor Antagonist, Either in the Presence (hB1 IC50) or Absence (hB1 free IC50) of 0.1% Bovine Serum Albumin (BSA) in Assay Buffer
CHO-K1 cell line expressing human B1 receptor was purchased from Euroscreen (Gosselies, Belgium, with reference name hB1-D1). The cells were grown in Nutrient Mixture Ham's F12 (Sigma) containing 10% Foetal bovine serum (Sigma) and 400 μg/mL G418 (Sigma), 5 μg/mL puromycin (Sigma).
For the calcium flux assay, 80% confluent cells were detached from the culture vessels with Versene (Gibco), and seeded into 384-well plates (Cell binding Surface; Corning, N.Y.; #3683) at a density of 15,000 cells per well. Cells were seeded in a volume of 50 μL in medium without antibiotics and incubated overnight in a humidified atmosphere with 5% CO2 at 37° C. […] The calcium indicator loaded cells were incubated at 37° C. for 2 hrs. Extracellular dye was then removed and each well was filled with 45 μL of assay buffer. Cell plates were kept in dark until used. Example compounds were assayed at 8 concentrations in triplicate. Serial 10-fold dilutions in 100% DMSO were made at a 100-times higher concentration than the final concentration, and then diluted 1:10 in assay buffer. 5 μL of each diluted compound was added to the well of cell plates (yielding final concentration with 1% DMSO), and incubated for 30 min at 28° C. before the addition of B1 receptor agonist on the FLIPR instrument.
Agonist plates contained the agonist Lys-(Des-Arg)-Bradykinin (Bachem, Brackley) at 3.5×EC90 in assay buffer with 1% DMSO. The addition of agonist 20 μl per well to the assay plate was carried out on the FLIPR instrument while continuously monitoring Ca^2+-dependent fluorescence at 538 nm. A peptide antagonist Lys-(Des-Arg-Leu)-Bradykinin (Bachem, Brackley) at 20 μM was used to determine the full inhibition as control.
Peak fluorescence was used to determine the response to agonist obtained at each concentration of example compound by the following equation:
% Response=100*(RFU(example compound)−RFU(control)/(RFU(DMSO)−RFU(control)
Control=full inhibition by the peptide antagonist Lys-(Des-Arg-Leu)-Bradykinin at 20 μM
The response values were plotted against the logarithm of the compound concentrations. The compounds were tested in triplicates per plate and mean values were plotted in Excel XLfit to determine IC50 values, percentage of maximal inhibition and the Hill slopes.

[1] abbreviates: presence of 0.1% BSA in assay buffer, read-out: hB1 IC50.
Where [2] appears, read: absence of 0.1% BSA in assay buffer, read-out: hB1 free IC50.

As to `CCOc1ccc(-c2cc(O)c(NC(=O)C3CC3c3ccc(Cl)cc3)cc2-c2nnn[nH]2)cn1` (single isomer, unassigned) [Example 49, 2-(4-chlorophenyl)-N-[4-(6-ethoxypyridin-3-yl)-2-hydroxy-5-(1H-tetrazol-5-yl)phenyl]cyclopropane-carboxamide], under setting [1], the IC50 amounted to 1580 nM.
As to `COc1ccc(-c2ccc(NC(=O)C3CC3c3ccccc3C)cc2-c2nnn[nH]2)cc1OC` (racemic) [Example 4, N-[3′,4′-dimethoxy-2-(1H-tetrazol-5-yl)biphenyl-4-yl]-2-(2-methylphenyl)cyclopro-panecarboxamide], the half-inhibitory concentration (IC50) reads like this: under setting [2], 12 nM; under setting [1], 27 nM.
In the same order, the values of `COc1ccc(-c2ccc(NC(=O)C3CC3c3cccc(C)c3)cc2-c2nnn[nH]2)cc1OC` (racemic) [Example 7, N-[3′,4′-dimethoxy-2-(1H-tetrazol-5-yl)biphenyl-4-yl]-2-(3-methylphenyl)cyclopro-panecarboxamide] are 6 nM and 19 nM.
Take `COc1cncc(-c2ccc(NC(=O)C3CC3c3cccc(C)c3)cc2-c2nnn[nH]2)c1` (racemic) [Example 25, N-[4-(5-Methoxypyridin-3-yl)-3-(1H-tetrazol-5-yl)phenyl]-2-(3-methylphenyl)cyclopro-panecarboxamide]: the IC50 under setting [1] amounted to 520 nM.
Same read-out and setting: the value for `O=C(Nc1ccc(-c2ccc(OC(F)(F)F)cc2)c(-c2nnn[nH]2)c1)C1CC1c1ccc(Cl)cc1` (racemic) [Example 41, 2-(4-chlorophenyl)-N-[2-(1H-tetrazol-5-yl)-4′-(trifluoro-methoxy)biphenyl-4-yl]cyclopropanecarbox-amide] was 33 nM.
As to `CCOc1ccc(-c2ccc(NC(=O)C3CC3c3cnn(C)c3)cc2-c2nnn[nH]2)cn1` (racemic) [Example 81, N-[4-(6-ethoxypyridin-3-yl)-3-(1H-tetrazol-5-yl)phenyl]-2-(1-methyl-1H-pyrazol-4-yl)cyclopro-panecarboxamide], the IC50 runs as follows: under setting [2], 2500 nM; under setting [1], 4070 nM.
Take `CCOc1ccc(-c2cc(C)c(NC(=O)C3CC3C3CCCCC3)cc2-c2nnn[nH]2)cc1OC` (racemic) [Example 73, 2-Cyclohexyl-N-[4′-ethoxy-3′-methoxy-5-methyl-2-(1H-tetrazol-5-yl)biphenyl-4-yl]cyclopro-panecarboxamide]: under setting [1], the IC50 came out at 226 nM.
Consider `O=C(Nc1ccc(-n2cc(C(F)(F)F)cn2)c(-c2nnn[nH]2)c1)C1CC1c1ccccc1` (racemic) [Example 43, 2-Phenyl-N-{3-(1H-tetrazol-5-yl)-4-[4-(trifluoromethyl)-1H-pyrazol-1-yl]phenyl}cyclopro-panecarboxamide], for which the IC50 under setting [2] turned out to be 2210 nM.
As for `Cc1cccc(C2CC2C(=O)Nc2cc(-c3nnn[nH]3)c(-c3ccc(C(F)(F)F)nc3)cc2C)c1` (racemic) [Example 70, 2-(3-Methylphenyl)-N-{2-methyl-5-(1H-tetrazol-5-yl)-4-[6-(trifluoromethyl)pyridin-3-yl]phenyl}cyclopro-panecarboxamide], the half-inhibitory concentration (IC50) stood at 157 nM under setting [2] and 86 nM under setting [1].
`CC(C)(C)c1cn(-c2ccc(NC(=O)C3CC3c3ccc(Cl)cc3)cc2-c2nnn[nH]2)cn1` (single isomer, unassigned) [Example 84, N-[4-(4-tert-butyl-1H-imidazol-1-yl)-3-(1H-tetrazol-5-yl)phenyl]-2-(4-chlorophenyl)cyclopropanecarboxamide]: under setting [2], the IC50 came out at 4 nM.
As to `Cn1cc(-c2ccc(NC(=O)C3CC3c3ccc(Cl)cc3)cc2-c2nnn[nH]2)cn1` (racemic) [Example 80, 2-(4-chlorophenyl)-N-[4-(1-methyl-1H-pyrazol-4-yl)-3-(1H-tetrazol-5-yl)phenyl]cyclopropane-carboxamide], the IC50 stood at 1310 nM under setting [2] and 12400 nM under setting [1].
Take `COc1ccc(-c2cc(F)c(NC(=O)C3CC3c3cccc(C)c3)cc2-c2nnn[nH]2)cc1OC` (racemic) [Example 53, N-[5-Fluoro-3′,4′-dimethoxy-2-(1H-tetrazol-5-yl)biphenyl-4-yl]-2-(3-methylphenyl)cyclopro-panecarboxamide]: the half-maximal inhibitory concentration (IC50) under setting [1] was 16 nM.
